Test results as given in PMC12715984, “Co‐cultivation and Medium Optimization: A Strategy for Discovering Fungal‐derived Protease Inhibitors” (Chemistry & Biodiversity, 2025).
Converted amounts (≈) assume the structure as drawn. Where two headings read alike, the source gives them in different places.

Columns and labels:
[1] = tested on: T. cruzi Tulahuen lacZ strain; experiment: Anti-T. cruzi activity, intracellular amastigotes in HFF-1 cells, beta-galactosidase/CPRG readout; conditions: Trypanosoma cruzi, HFF-1, 120 h
Text: The evaluation utilized the genetically modified T. cruzi Tulahuen lacZ strain, engineered to express the lacZ gene encoding β‐galactosidase. Viable intracellular parasites express this enzyme, which hydrolyzes the substrate chlorophenol red‐β‐D‐galactopyranoside (CPRG) to release chlorophenol red, a chromogenic product quantified spectrophotometrically at 570 nm. The absorbance intensity directly correlates with the number of metabolically active parasites present during the assay.
Axenic cultures of T. cruzi epimastigotes (strain MHOM/CH/00/Tulahuen C2, lacZ) were grown in LIT medium containing 10% fetal calf serum (FCS) at 28°C. During the exponential growth phase, parasites were collected via centrifugation (250 × g, 10 min), resuspended in Grace's insect medium supplemented with 10% FCS, and differentiated into metacyclic trypomastigotes over 5–14 days. Differentiated parasites were harvested and used to infect Human Foreskin Fibroblasts (HFF‐1), cultured in Dulbecco's Modified Eagle Medium (DMEM) with 10% FCS under 5% CO2 at 37°C.
For infection assays, HFF‐1 cells were plated in 96‐well plates (5 × 10⁴ cells/well) in 80 µL phenol red‐free DMEM and incubated overnight. Metacyclic trypomastigotes (5 × 10⁵ parasites/well in 20 µL) were added, followed by 24‐hour incubation. After this period, trypomastigotes differentiate into intracellular amastigotes. Non‐infective parasites were removed by replacing the medium with 100 µL fresh DMEM. Test compounds, at varying concentrations, were then applied to determine IC50 values against intracellular amastigotes, with benznidazole as the positive control. After 5 days of incubation (37°C, 5% CO2), 50 µL of 1 mM CPRG and 0.1% IGEPAL CA‐630 (a non‐ionic detergent) were added. β‐Galactosidase activity, reflecting parasite viability, induced a colorimetric shift from yellow to red, measured at 570 nm. Growth inhibition percentages were calculated relative to untreated controls. Benznidazole was used as the positive control and DMSO as the negative control.

papain [2] = molecular target: T1, papain (Carica papaya, UniProt P00784); experiment: Papain inhibition, fluorometric Z-Phe-Arg-MCA assay; type: biochemical; conditions: for inhibition at 100 µM: read-out: % inhibition (100 µM)
T1 construct: purchased
T1 sequence (P00784 134-345): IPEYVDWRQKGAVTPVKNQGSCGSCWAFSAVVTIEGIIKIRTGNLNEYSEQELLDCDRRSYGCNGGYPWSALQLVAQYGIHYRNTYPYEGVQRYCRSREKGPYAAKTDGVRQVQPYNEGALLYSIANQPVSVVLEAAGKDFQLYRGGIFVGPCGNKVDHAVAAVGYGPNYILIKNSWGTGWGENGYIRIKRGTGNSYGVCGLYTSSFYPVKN
Experimental: Compounds 1, 2, 4, and 7–11 were tested against papain inhibitory activity. Papain served as the model cysteine protease in the protease inhibition assay. Enzyme activity was assessed via real‐time fluorometric monitoring of 7‐amino‐4‐methylcoumarin (MCA) release during substrate cleavage. Hydrolysis of the fluorogenic substrate Z‐Phe‐Arg‐MCA (ZFR‐MCA) was tracked in black 96‐well plates using a spectrofluorometer (λex/λem = 380/460 nm) (SpectraMax M3, Molecular Devices).
Each reaction well contained 5 µL papain (80 nM), 2 µL dithiothreitol (DTT, 500 mM), and 158 µL sodium acetate buffer (100 mM, pH 5.5, 5 mM EDTA). After a 5‐minute pre‐incubation at 27°C, 5 µL of test compound (dissolved in DMSO) or DMSO (negative control) was added. In the initial screening, all compounds were tested at a fixed concentration of 100 µM to evaluate their inhibitory potential. Following a second 5‐minute incubation at 27°C, 30 µL ZFR‐MCA (0.6 mM) was added, and fluorescence was recorded every 300 s using a SpectraMax M3 microplate reader (Molecular Devices). This concentration guided subsequent serial dilutions to determine the IC50 (half‐maximal inhibitory concentration).
For this, a serial dilution series was prepared from the active compounds, and the assay was conducted as previously described. Final assay conditions (200 µL/well) yielded effective compound concentrations of 100 µM to 1.56 µM for IC50 determination. Papain's molar concentration was validated via titration with the irreversible inhibitor E‐64 (positive control) from 1.0 µM to 31.25 nM. All experiments included triplicate measurements across two independent trials (total n = 6).

Cytotoxicity assay, MTS = type: cell-based; conditions: human, HFF-1, 120-hour incubation, maximum tested 64 µM
Experimental: Cytotoxicity assays: HFF‐1 fibroblasts (provided by Rio de Janeiro Cell Bank (BCRJ)) were seeded at a density of 2 × 10^3 cells per well in 100 µL of DMEM and incubated overnight at 37°C in a 5% CO2 atmosphere. Subsequently, test compounds were added in serial dilutions, followed by a 120‐hour incubation period under the same conditions. Each plate included negative controls and doxorubicin as a positive control. After incubation, 15 µL of MTS reagent (CellTiter96) was added to each well, and plates were incubated for an additional 4 h. Absorbance was measured at 490 nm using a microplate reader. The percentage of growth inhibition was calculated relative to the absorbance of the negative control wells.

[3] = tested on: Candida albicans (ATCC 64548); experiment: Antifungal broth microdilution (CLSI M27A3), MIC; type: cell-based; conditions: for MIC: Candida albicans, ATCC64548, read-out: minimum inhibitory concentration (MIC)
Experimental: The antifungal activity of compounds 1–5, 7–11 was evaluated using the broth microdilution method in 96‐well plates, following the Clinical Laboratory Standard Institute (CLSI) guidelines M27A3 [35, 36], with minor modifications. The assay was performed against Candida auris (CDC B11903), Candida parapsilosis (ATCC 22019), and Candida albicans (ATCC 64548), and based on the determination of the minimum inhibitory concentration (MIC).
Each compound was initially dissolved in DMSO at a stock concentration 100 times higher than the highest concentration tested. Working solutions were subsequently prepared in RPMI 1640 culture medium (pH 7.0), supplemented with L‐glutamine, devoid of bicarbonate, and containing phenol red as a pH indicator, to yield a 2 × concentration. Serial two‐fold dilutions were made to obtain final concentrations ranging from 3.125 to 200.00 µg/mL. Fluconazole was used as a reference antifungal control.
Aliquots of 100 µL of each 2 × test solution were dispensed into the wells of the microdilution plates. Fungal suspensions were prepared in autoclaved distilled water and adjusted to a final concentration of 5.0 × 10^3 conidia or blastoconidia/mL. After inoculation, plates were incubated at 37°C. Fungal growth was visually assessed after 24 and 48 h. […] All assays were performed in duplicate.

papain [4] = molecular target: T1, papain; parameters: method as in earlier work; conditions: at 200 µM; cited from earlier work
bacteria = tested on: bacteria; parameters: method as in PMID 21497643; conditions: cited from earlier work
plant-parasitic nematode = tested on: plant-parasitic nematode; parameters: method as in PMID 27990770; conditions: cited from earlier work
Cryphonectria parasitica = tested on: Cryphonectria parasitica; parameters: method as in PMID 11052720; conditions: against Cryphonectria parasitica; cited from earlier work
papain [5] = molecular target: T1, papain; parameters: method as in PMID 32189177; conditions: at a concentration of 50 µM, cited from earlier work

Work on `O=C(Cn1ccnc1[N+](=O)[O-])NCc1ccccc1` [Benznidazole, reference compound] yielded an IC50 [1] of 2.24 ± 0.9 µM.

With `CCCCc1ccc(C(=O)[O][Mg][O]C(=O)c2ccc(CCCC)cn2)nc1` [Compound 2, magnesium complex of fusaric acid] the IC50 (papain [2]; papain) was 17.5 µM, the inhibition at 100 µM (papain [2]) was 94 ± 7.9% and the CC50 at 120 h (Cytotoxicity assay, MTS) was over 64 µM. The IC50 [1] was 12.2 ± 0.4 µM and the MIC [3] was 50 µg/mL.

For `CSC12CC3=CC=CC(OC(C)=O)C3N1C(=O)C1(SC)CC3=CC=CC(OC(C)=O)C3N1C2=O` (centres unmarked) [Compound 4, haematocin], the IC50 (papain [2]) was 47.7 µM, the inhibition at 100 µM (papain [2]) was 76.6% and the CC50 at 120 h (Cytotoxicity assay, MTS) was over 64 µM. It also gave an IC50 [1] of 13.3 ± 1 µM and an MIC [3] of 100 µg/mL (≈ 199 µM).

For `CCCCc1ccc(C(=O)O)nc1` [Compound 5, fusaric acid], the papain inhibition (papain [4]) is given as 58%, the CC50 at 120 h (Cytotoxicity assay, MTS) is given as over 64 µM and the IC50 [1] is given as 20.9 ± 0.3 µM.

In the case of `C[C@@H](O)CCc1ccc(C(=O)O)nc1` [Compound 7, (R)‐fusarinolic acid], the antibacterial activity (bacteria) is given as “no significant activity”, the plant-parasitic nematode activity (plant-parasitic nematode) is given as “no significant activity” and the CC50 at 120 h (Cytotoxicity assay, MTS; HFF-1 fibroblasts) is given as over 64 µM. For the same molecule, the IC50 [1] was 60.07 ± 0.6 µM.

In the case of `CC(C)=CCCC(C)(O)C1CCC(C)(O)C1C` (centres unmarked) [Compound 8, cyclonerodiol], the inhibition at 100 µM (papain [2]; papain, compound at 100 µM) is given as 89%, the IC50 (papain [2]; papain, read-out: IC50) is given as 25.9 µM and the antifungal activity (Cryphonectria parasitica) is given as “weak antifungal activity”. For the same molecule, the CC50 at 120 h (Cytotoxicity assay, MTS; HFF-1 fibroblasts) was over 64 µM and the IC50 [1] was 22.7 ± 1.1 µM.

For `CC(C)C[C@H](NC(=O)[C@H]1O[C@@H]1C(=O)O)C(=O)NCCCCN=C(N)N` [E‐64, reference compound], the IC50 (papain [2]; papain, positive control, read-out: IC50) was 0.0072 µM.

For `CC(C)C[C@@H]1NC(=O)[C@@H]2CCCN2C1=O` [cyclo(L‐Leu‐L‐Pro) diketopiperazine], the papain inhibition (papain [5]; 50 µM) is listed as 3%.

In the case of `CC(C)[C@@H]1NC(=O)[C@@H]2CCCN2C1=O` [cyclo(L‐Val‐L‐Pro)], the papain inhibition (papain [5]) is given as 10%.

In the case of “Iron complex of fusaric acid [Compound 1]”, the “% inhibition (100 µM)” value (papain [2]; papain, compound at 100 µM, 100 µM) is reported as 88.6%, the IC50 (papain [2]; papain, read-out: IC50) is reported as 14.1 µM and the “minimum inhibitory concentration (MIC)” value ([3]; C. albicans, tested 3.125 to 200.00 µg/mL) is reported as 100 µg/mL.
